Active and inactive are the calls of the source.

For orientation: IC50 means the point on the concentration scale where inhibition reaches its midpoint. What is called EC50 is the concentration giving half of the maximal effect.

Assay [1] has as its target T1, Mannose-6-phosphate isomerase (Homo sapiens, UniProt P34949).
T1 sequence (P34949 whole entry): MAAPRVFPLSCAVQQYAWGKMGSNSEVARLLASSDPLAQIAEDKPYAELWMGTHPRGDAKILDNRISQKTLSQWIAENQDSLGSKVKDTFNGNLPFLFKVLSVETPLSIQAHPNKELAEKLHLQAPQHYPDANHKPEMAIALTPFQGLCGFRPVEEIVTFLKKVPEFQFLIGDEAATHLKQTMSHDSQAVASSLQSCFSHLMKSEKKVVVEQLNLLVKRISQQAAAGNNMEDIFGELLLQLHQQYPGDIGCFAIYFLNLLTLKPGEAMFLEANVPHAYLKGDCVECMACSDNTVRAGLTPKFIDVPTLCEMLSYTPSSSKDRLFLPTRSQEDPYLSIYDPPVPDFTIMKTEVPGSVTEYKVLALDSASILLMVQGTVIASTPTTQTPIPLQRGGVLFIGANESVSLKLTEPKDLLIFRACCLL
Briefly: MPI inhibition at elevated mannose 6-phosphate – biochemical, fluorescence intensity, high mannose 6-phosphate, primary screen (AID 1220).

Assay [2] can be described thus: cells. It counts as functional, cell-based.
Assay [3] in a line: cells. It is filed as functional, cell-based. This is another data set of the same source.
Assay [4] has as its target T2, Rac GTPase-activating protein 1 (Homo sapiens, UniProt Q9H0H5).
T2 sequence (Q9H0H5 whole entry): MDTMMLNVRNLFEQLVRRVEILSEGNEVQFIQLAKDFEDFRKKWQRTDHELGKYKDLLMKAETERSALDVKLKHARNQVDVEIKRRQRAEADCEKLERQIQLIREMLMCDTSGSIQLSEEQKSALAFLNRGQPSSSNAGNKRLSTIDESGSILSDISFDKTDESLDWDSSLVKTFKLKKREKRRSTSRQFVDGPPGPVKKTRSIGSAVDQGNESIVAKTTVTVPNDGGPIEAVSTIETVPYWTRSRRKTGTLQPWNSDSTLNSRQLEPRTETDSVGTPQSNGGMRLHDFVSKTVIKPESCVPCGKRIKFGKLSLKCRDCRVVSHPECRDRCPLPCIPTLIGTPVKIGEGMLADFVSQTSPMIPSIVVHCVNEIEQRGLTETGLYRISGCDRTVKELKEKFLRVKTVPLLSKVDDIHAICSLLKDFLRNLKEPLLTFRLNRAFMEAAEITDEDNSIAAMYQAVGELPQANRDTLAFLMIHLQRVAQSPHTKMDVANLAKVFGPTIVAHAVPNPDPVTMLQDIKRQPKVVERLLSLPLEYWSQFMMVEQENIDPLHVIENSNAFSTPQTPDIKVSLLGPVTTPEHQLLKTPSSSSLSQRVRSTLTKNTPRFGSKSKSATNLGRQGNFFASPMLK
The assay can be described thus: blockers of MgcRacGAP-driven Rac1 GTP hydrolysis – biochemical, ADP Hunter fluorescence, primary and confirmatory, confirmation (AID 624330). It counts as functional.

Take `Cn1cccc1/C=C1\CCc2ccccc2C1=O`: the IC50 in assay [1] is > 50 µM (not active).
Turning to `COc1cc(NC(c2ccccc2)c2ccccc2)cc(OC)c1OC`, the IC50 in assay [1] is given as > 50 µM (not active).
Regarding `CCC1CCc2sc(C(=O)NCc3ccccn3)cc2C1` (configuration not stated), the EC50 in assay [2] is > 350 µM (not active); in assay [3] it was 52.4 µM (active).
Regarding `Cc1ccc(-n2nc3c(=O)n(CC(=O)NCc4ccccc4)nc(C)c3c2C)cc1`, the EC50 in assay [2] and in assay [3] was > 350 µM (not active) in each case.
As to `Cc1cc(N2CCOCC2)nc2ccc(NC(=S)N3CCCCC3C)cc12` (configuration not stated), the IC50 in assay [1] is reported as > 50 µM (not active).
For the compound `Cc1ccc(O)c(/C=N/c2ccc3[nH]ncc3c2)c1`, the IC50 in assay [1] is > 50 µM (not active); in assay [4] it was 27.7 µM (active).
For the compound `OCCC1CN(Cc2c(O)ccc3ccccc23)CCN1CCc1ccccc1` (configuration not stated), the IC50 in assay [1] was > 50 µM (not active).
For the compound `O=C(O)c1ccc(N2C(=O)CSC2=S)cc1`, the EC50 in assay [2] and in assay [3] was > 350 µM (not active) each time.
